The target of this assay is T1, small-conductance Ca2+-activated K+ channels (SK channels, subtype 2) (Homo sapiens, UniProt Q9H2S1).
T1 construct: expressed in transfected cells; host or cells: HEK293
Briefly: whole-cell patch-clamp of ionic current through SK2 channels in HEK293 cells (SC100). It counts as cell-based. The settings on record: concentration that increases the basal current by 100%; HEK293 cells expressing SK2 channels. In short, it runs like this: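 Whole-cell patch-clamp recording of current in HEK293 cells expressing SK2 channels. SC100 is the compound concentration that increases basal current by 100%.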
In the case of `CCc1ccn(-c2nc(C)cc(NC3CCC(F)(F)CC3)n2)n1` [Compound 197, N-(4,4-difluorocyclohexyl)-2-(3-ethyl-1H-pyrazol-1-yl)-6-methylpyrimidin-4-amine], the SC100 entry is on record as “++ (++ means 200 nM-1000 nM)”.

Take `Cc1cc(C)n(-c2nc(NC3CCC(F)(F)CC3)cc([C@H](C)O)n2)n1` [Compound 199, (+)1-(6-((4,4-difluorocyclohexyl)amino)-2-(3,5-dimethyl-1H-pyrazol-1-yl)pyrimidin-4-yl)ethan-1-ol]: the SC100 entry is listed as “++ (++ means 200 nM-1000 nM)”.

Take `Cc1cc(NC2CCC(F)(F)CC2)nc(-n2ccc(C(F)(F)F)n2)n1` [Compound 200, N-(4,4-difluorocyclohexyl)-6-methyl-2-(3-(trifluoromethyl)-1H-pyrazol-1-yl)pyrimidin-4-amine]: the SC100 entry is listed as “++ (++ means 200 nM-1000 nM)”.

With `Cc1cc(NC2CCC(F)(F)CC2)nc(-n2nc(C)c(F)c2C)n1` [Compound 201, N-(4,4-difluorocyclohexyl)-2-(4-fluoro-3,5-dimethyl-1H-pyrazol-1-yl)-6-methylpyrimidin-4-amine], the SC100 entry is recorded as “++ (++ means 200 nM-1000 nM)”.

Turning to `Cc1cc(NC2CCC(F)(F)CC2)nc(-n2ccc(C(C)O)n2)n1` (centres unmarked) [Compound 202, 1-(1-(4-((4,4-difluorocyclohexyl)amino)-6-methylpyrimidin-2-yl)-1H-pyrazol-3-yl)ethan-1-ol], the SC100 result was “+ (+ means >1 uM)”.

Consider `Cc1cc(NC2CCC(F)(F)CC2)nc(-n2ccc(C3CC3)n2)n1` [Compound 203, 2-(3-cyclopropyl-1H-pyrazol-1-yl)-N-(4,4-difluorocyclohexyl)-6-methylpyrimidin-4-amine], for which the SC100 result is reported as “++ (++ means 200 nM-1000 nM)”.

`Cc1cc(NC2CCC(F)(F)CC2)nc(-n2ccc(CO)n2)n1` [Compound 204, (1-(4-((4,4-difluorocyclohexyl)amino)-6-methylpyrimidin-2-yl)-1H-pyrazol-3-yl)methanol]: the SC100 entry is recorded as “+ (+ means >1 uM)”.

For the compound `Cc1cc(C)n(-c2cc(C(C)(C)O)cc(NC3CCC(F)(F)CC3)n2)n1` [Compound 206, 2-(2-((4,4-difluorocyclohexyl)amino)-6-(3,5-dimethyl-1H-pyrazol-1-yl)pyridin-4-yl)propan-2-ol], the SC100 entry is recorded as “+ (+ means >1 uM)”.

On to `Cc1cc(C)n(-c2cc(C(C)O)cc(NC3CCC(F)(F)CC3)n2)n1` (centres unmarked) [Compound 207, 1-(2-((4,4-difluorocyclohexyl)amino)-6-(3,5-dimethyl-1H-pyrazol-1-yl)pyridin-4-yl)ethan-1-ol], for which the SC100 result is given as “+ (+ means >1 uM)”.

For the compound `Cc1cc(NC2CCC(F)(F)CC2)nc(-n2ccc(CC#N)n2)n1` [Compound 208, 2-(1-(4-((4,4-difluorocyclohexyl)amino)-6-methylpyrimidin-2-yl)-1H-pyrazol-3-yl)acetonitrile], the SC100 result is recorded as “++ (++ means 200 nM-1000 nM)”.

Consider `Cc1cc(C)n(-c2nc(NC3CCC(F)(F)CC3)cc(OC(F)F)n2)n1` [Compound 209, N-(4,4-difluorocyclohexyl)-6-(difluoromethoxy)-2-(3,5-dimethyl-1H-pyrazol-1-yl)pyrimidin-4-amine], for which the SC100 result was “+ (+ means >1 uM)”.

With `Cc1ccn(-c2nc(NC3CCC(F)(F)CC3)cc(OC3CN(C(=O)C(C)C)C3)n2)n1` [Compound 210, 1-(3-((6-((4,4-difluorocyclohexyl)amino)-2-(3-methyl-1H-pyrazol-1-yl)pyrimidin-4-yl)oxy)azetidin-1-yl)-2-methylpropan-1-one], the SC100 entry is given as “++ (++ means 200 nM-1000 nM)”.

For `Cc1ccn(-c2nc(NC3CCC(F)(F)CC3)cc(OC3CN(C(=O)C(C)(C)C)C3)n2)n1` [Compound 211, 1-(3-((6-((4,4-difluorocyclohexyl)amino)-2-(3-methyl-1H-pyrazol-1-yl)pyrimidin-4-yl)oxy)azetidin-1-yl)-2,2-dimethylpropan-1-one], the SC100 result was “+++ (+++ means <200 nM)”.

For the compound `Cc1cc(NC2CCC(F)(F)CC2)nc(-n2ccc(C#N)n2)n1` [Compound 212, 1-(4-((4,4-difluorocyclohexyl)amino)-6-methylpyrimidin-2-yl)-1H-pyrazole-3-carbonitrile], the SC100 result was “+ (+ means >1 uM)”.

In the case of `Cc1cc(C)n(-c2nc(NC3CCC(F)(F)C3)cc(C(C)(C)O)n2)n1` (centres unmarked) [Compound 214, 2-(6-((3,3-difluorocyclopentyl)amino)-2-(3,5-dimethyl-1H-pyrazol-1-yl)pyrimidin-4-yl)propan-2-ol], the SC100 entry is “+ (+ means >1 uM)”.

Regarding `Cc1cc(NC2CCC(F)(F)CC2)nc(-n2ccc(C(C)(C)O)n2)n1` [Compound 215, 2-(1-(4-((4,4-difluorocyclohexyl)amino)-6-methylpyrimidin-2-yl)-1H-pyrazol-3-yl)propan-2-ol], the SC100 result was “+ (+ means >1 uM)”.

For `Cc1cc(NC2CCC(F)(F)CC2)nc(-n2ccc(C(F)F)n2)n1` [Compound 216], the SC100 entry is recorded as “++ (++ means 200 nM-1000 nM)”.

Turning to `Cc1cc(C)n(-c2nc(NC3CCC(F)(F)C3)cc(C3CC3)n2)n1` (centres unmarked) [Compound 217, 6-cyclopropyl-N-(3,3-difluorocyclopentyl)-2-(3,5-dimethyl-1H-pyrazol-1-yl)pyrimidin-4-amine], the SC100 result is on record as “+ (+ means >1 uM)”.

Regarding `Cc1cc(NC2CCC(F)(F)CC2)nc(-n2ccc(C(C)C)n2)n1` [Compound 218, N-(4,4-difluorocyclohexyl)-2-(3-isopropyl-1H-pyrazol-1-yl)-6-methylpyrimidin-4-amine], the SC100 result is reported as “++ (++ means 200 nM-1000 nM)”.

For the compound `COc1cccc(-c2nc(C)cc(NC3CCC(F)(F)CC3)n2)n1` [Compound 219, N-(4,4-difluorocyclohexyl)-2-(6-methoxypyridin-2-yl)-6-methylpyrimidin-4-amine], the SC100 result was “+ (+ means >1 uM)”.

`Cc1cc(NC2CCC(F)(F)CC2)nc(-n2nc(Br)cc2C)n1` [Compound 220, 2-(3-bromo-5-methyl-1H-pyrazol-1-yl)-N-(4,4-difluorocyclohexyl)-6-methylpyrimidin-4-amine]: the SC100 entry is “++ (++ means 200 nM-1000 nM)”.

As to `Cc1cc(NC2CCC(F)(F)CC2)nc(-n2nc(C3CC3)cc2C)n1` [Compound 221, 2-(3-cyclopropyl-5-methyl-1H-pyrazol-1-yl)-N-(4,4-difluorocyclohexyl)-6-methylpyrimidin-4-amine], the SC100 result is reported as “+ (+ means >1 uM)”.

In the case of `Cc1cc(C)n(-c2cc(C3CC3)nc(NC3CCC(F)(F)C3)n2)n1` (centres unmarked) [Compound 222, 4-cyclopropyl-N-(3,3-difluorocyclopentyl)-6-(3,5-dimethyl-1H-pyrazol-1-yl)pyrimidin-2-amine], the SC100 result was “+ (+ means >1 uM)”.

As to `Cc1cc(NC2CCC(F)(F)CC2)nc(-n2ccc(CF)n2)n1` [Compound 223], the SC100 entry is on record as “+ (+ means >1 uM)”.

As to `Cc1cccc(-c2nc(C)cc(NC3CCC(F)(F)CC3)n2)n1` [Compound 224, N-(4,4-difluorocyclohexyl)-6-methyl-2-(6-methylpyridin-2-yl)pyrimidin-4-amine], the SC100 result is “+ (+ means >1 uM)”.

For the compound `Cc1cc(C)n(-c2nc(NC3CCC(F)(F)C3)cc(C(C)O)n2)n1` (centres unmarked) [Compound 225, 1-(6-((3,3-difluorocyclopentyl)amino)-2-(3,5-dimethyl-1H-pyrazol-1-yl)pyrimidin-4-yl)ethan-1-ol], the SC100 result is recorded as “+ (+ means >1 uM)”.
